Legend:
Mnk2 = Mnk2 (Homo sapiens (Human), UniProt Q9HBH9); test: KinaseProfiler radiometric assay (14-664KP); type: biochemical; conditions: mean of at least two independent experiments
Description: (§1) In another aspect, disclosed is a method of inhibiting citron kinase in a sample, comprising contacting the sample with a compound described herein (e.g., a compound of formula (I) or a pharmaceutically acceptable salt thereof), or a pharmaceutical composition described herein (e.g., a pharmaceutical composition comprising a compound of formula (I) or a pharmaceutically acceptable salt thereof), in an amount effective to inhibit citron kinase. In some embodiments, the step of contacting the sample with the compound comprises administering the compound to a subject (e.g., a subject) suffering from cancer. Methods of determining kinase inhibition are well known in the art. For example, kinase activity of an enzyme and the inhibitory capacity of a test compound can be determined by measuring enzyme specific phosphorylation of a substrate. Commercial assays and kits can be employed. For example, kinase inhibition can be determined using a radiometric binding assay, such as using KinaseProfiler™ technology (Eurofins Discovery). This assay method directly detects product formation without the use of modified substrates or coupling enzymes. […]
(§2) The effect of various compounds on the inhibition of other kinases has also been determined. Table 2 reports measured IC50 values; value units are nanomolar inhibition.

PKAα = PKAα (Homo sapiens (Human), UniProt P17612); test: KinaseProfiler radiometric assay (14-440KP); type: biochemical; conditions: mean of at least two independent experiments
Description: (§3) In another aspect, disclosed is a method of inhibiting citron kinase in a sample, comprising contacting the sample with a compound described herein (e.g., a compound of formula (I) or a pharmaceutically acceptable salt thereof), or a pharmaceutical composition described herein (e.g., a pharmaceutical composition comprising a compound of formula (I) or a pharmaceutically acceptable salt thereof), in an amount effective to inhibit citron kinase. In some embodiments, the step of contacting the sample with the compound comprises administering the compound to a subject (e.g., a subject) suffering from cancer. Methods of determining kinase inhibition are well known in the art. For example, kinase activity of an enzyme and the inhibitory capacity of a test compound can be determined by measuring enzyme specific phosphorylation of a substrate. Commercial assays and kits can be employed. For example, kinase inhibition can be determined using a radiometric binding assay, such as using KinaseProfiler™ technology (Eurofins Discovery). This assay method directly detects product formation without the use of modified substrates or coupling enzymes. Test compounds are incubated with kinase, substrate, required cofactors and radioisotope labeled ATP. Following incubation, unreacted radioactive ATP is removed by washing and incorporation of the radiolabeled phosphate into the kinase substrate is assayed to detect phosphoryltransferase activity, which is directly proportional to the amount of phosphorylated substrate. Inhibition of the kinase by a kinase inhibitor prevents phosphorylation of the substrate and thereby limits the incorporation of radiolabeled phosphate. Such an assay is compatible with a microwell assay format, allowing simultaneous determination of IC50 of multiple compounds.
as §2

IKKβ = IKKβ (Homo sapiens (Human), UniProt O14920); test: KinaseProfiler radiometric assay (14-485KP); type: biochemical; conditions: mean of at least two independent experiments
Description: as §3, §2

HIPK4 = HIPK4 (Homo sapiens (Human), UniProt Q8NE63); test: KinaseProfiler radiometric assay (15-003KP); type: biochemical; conditions: mean of at least two independent experiments
Description: as §1, §2

Citron kinase = Citron kinase (Homo sapiens (Human), UniProt O14578); test: Radiometric citron kinase assay (Eurofins Cat #16-040KP); type: biochemical; conditions: mean of at least two independent assays; read-out: Radiometric CitK IC50
Summary of the method: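 Radiometric KinaseProfiler format: test compound incubated with kinase, substrate, cofactors and radiolabelled ATP; unreacted ATP washed away and radiolabelled phosphate incorporated into substrate measured. IC50 derived from inhibition of phosphorylation. Values are means of at least two independent assays.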

DRAK2 = DRAK2 (Homo sapiens (Human), UniProt O94768); test: KinaseProfiler radiometric assay (16-003KP); type: biochemical; conditions: mean of at least two independent experiments
Description: as §3, with “In” for “In another aspect, disclosed is a method of inhibiting citron kinase in a sample, comprising contacting the sample with a compound described herein (e.g., a compound of formula (I) or a pharmaceutically acceptable salt thereof), or a pharmaceutical composition described herein (e.g., a pharmaceutical composition comprising a compound of formula (I) or a pharmaceutically acceptable salt thereof), in an amount effective to inhibit citron kinase. In”

ACK1 = ACK1 (Homo sapiens (Human), UniProt Q07912); test: KinaseProfiler radiometric assay (14-756KP); type: biochemical; conditions: mean of at least two independent experiments
Description: as §3, with “In” for “In another aspect, disclosed is a method of inhibiting citron kinase in a sample, comprising contacting the sample with a compound described herein (e.g., a compound of formula (I) or a pharmaceutically acceptable salt thereof), or a pharmaceutical composition described herein (e.g., a pharmaceutical composition comprising a compound of formula (I) or a pharmaceutically acceptable salt thereof), in an amount effective to inhibit citron kinase. In”

ROCK-2 = ROCK-2 (Homo sapiens (Human), UniProt O75116); test: KinaseProfiler radiometric assay (14-451KP); type: biochemical; conditions: mean of at least two independent experiments
Description: as §3, §2

BIKE = BIKE (Homo sapiens (Human), UniProt Q9NSY1); test: KinaseProfiler radiometric assay (16-044KP); type: biochemical; conditions: mean of at least two independent experiments
Description: as §1, §2

AAK1 = AAK1 (Homo sapiens (Human), UniProt Q2M2I8); test: KinaseProfiler radiometric assay (16-043KP); type: biochemical; conditions: mean of at least two independent experiments
Description: as §1, §2

[1] = biological target: NanoLuc-CITK (full-length human CITK) (Homo sapiens (Human), UniProt O14578); test: NanoBRET intracellular target engagement assay; type: cell-based
Method: In-cell Kd values were evaluated with a NanoBRET Target Engagement Assay essentially as recommended by the manufacturer (Promega Corporation—for details see https://www.promega.com/resources/technologies/nanoluc-luciferase-enzyme/cellular-target-engagement/).
HEK293T cells were transfected with 5.0 μg/mL sterile NanoLuc-CITK DNA, 5.0 μg/mL Transfection Carrier DNA, and 30 μL/mL FugeneHD® (Promega) in Opti-Mem™ (Thermo) media at a cell density of 250,000 cells/mL. […] 5 μL of the 25× Tracer K10 solution was added to each well. Next, designated inhibitors were prepared from powder as 10 mM DMSO stocks and then further diluted to 10× the final assay concentration in Opti-Mem™. 12-pt dose-response curves were prepared by 3×-serial dilution. […] A 3× Complete Substrate+Inhibitor solution, containing 6 mL of Opti-Mem™, 36 μL of NanoBRET Nano-Glo Substrate, and 12 μL Extracellular NanoLuc Inhibitor was freshly prepared for each plate. 50 μL of the 3× Complete Substrate+Inhibitor solution was added to all wells and the plate was incubated for 2 min with 500 RPM shaking. The bottom of the plates were covered with black plate seals and then measured on a Cytation 5 plate reader (Biotek) with a NanoBRET Filter Cube (Biotek; 450/50 emission & 610LP emission). Background corrected BRET ratios (in mBU) were calculated in Excel and IC50's were subsequently extracted using four-parameter non-linear regression in GraphPad Prism 8.

Chain of NanoLuc-CITK (full-length human CITK) (O14578 other isoform, or with tags, fused parts or gaps): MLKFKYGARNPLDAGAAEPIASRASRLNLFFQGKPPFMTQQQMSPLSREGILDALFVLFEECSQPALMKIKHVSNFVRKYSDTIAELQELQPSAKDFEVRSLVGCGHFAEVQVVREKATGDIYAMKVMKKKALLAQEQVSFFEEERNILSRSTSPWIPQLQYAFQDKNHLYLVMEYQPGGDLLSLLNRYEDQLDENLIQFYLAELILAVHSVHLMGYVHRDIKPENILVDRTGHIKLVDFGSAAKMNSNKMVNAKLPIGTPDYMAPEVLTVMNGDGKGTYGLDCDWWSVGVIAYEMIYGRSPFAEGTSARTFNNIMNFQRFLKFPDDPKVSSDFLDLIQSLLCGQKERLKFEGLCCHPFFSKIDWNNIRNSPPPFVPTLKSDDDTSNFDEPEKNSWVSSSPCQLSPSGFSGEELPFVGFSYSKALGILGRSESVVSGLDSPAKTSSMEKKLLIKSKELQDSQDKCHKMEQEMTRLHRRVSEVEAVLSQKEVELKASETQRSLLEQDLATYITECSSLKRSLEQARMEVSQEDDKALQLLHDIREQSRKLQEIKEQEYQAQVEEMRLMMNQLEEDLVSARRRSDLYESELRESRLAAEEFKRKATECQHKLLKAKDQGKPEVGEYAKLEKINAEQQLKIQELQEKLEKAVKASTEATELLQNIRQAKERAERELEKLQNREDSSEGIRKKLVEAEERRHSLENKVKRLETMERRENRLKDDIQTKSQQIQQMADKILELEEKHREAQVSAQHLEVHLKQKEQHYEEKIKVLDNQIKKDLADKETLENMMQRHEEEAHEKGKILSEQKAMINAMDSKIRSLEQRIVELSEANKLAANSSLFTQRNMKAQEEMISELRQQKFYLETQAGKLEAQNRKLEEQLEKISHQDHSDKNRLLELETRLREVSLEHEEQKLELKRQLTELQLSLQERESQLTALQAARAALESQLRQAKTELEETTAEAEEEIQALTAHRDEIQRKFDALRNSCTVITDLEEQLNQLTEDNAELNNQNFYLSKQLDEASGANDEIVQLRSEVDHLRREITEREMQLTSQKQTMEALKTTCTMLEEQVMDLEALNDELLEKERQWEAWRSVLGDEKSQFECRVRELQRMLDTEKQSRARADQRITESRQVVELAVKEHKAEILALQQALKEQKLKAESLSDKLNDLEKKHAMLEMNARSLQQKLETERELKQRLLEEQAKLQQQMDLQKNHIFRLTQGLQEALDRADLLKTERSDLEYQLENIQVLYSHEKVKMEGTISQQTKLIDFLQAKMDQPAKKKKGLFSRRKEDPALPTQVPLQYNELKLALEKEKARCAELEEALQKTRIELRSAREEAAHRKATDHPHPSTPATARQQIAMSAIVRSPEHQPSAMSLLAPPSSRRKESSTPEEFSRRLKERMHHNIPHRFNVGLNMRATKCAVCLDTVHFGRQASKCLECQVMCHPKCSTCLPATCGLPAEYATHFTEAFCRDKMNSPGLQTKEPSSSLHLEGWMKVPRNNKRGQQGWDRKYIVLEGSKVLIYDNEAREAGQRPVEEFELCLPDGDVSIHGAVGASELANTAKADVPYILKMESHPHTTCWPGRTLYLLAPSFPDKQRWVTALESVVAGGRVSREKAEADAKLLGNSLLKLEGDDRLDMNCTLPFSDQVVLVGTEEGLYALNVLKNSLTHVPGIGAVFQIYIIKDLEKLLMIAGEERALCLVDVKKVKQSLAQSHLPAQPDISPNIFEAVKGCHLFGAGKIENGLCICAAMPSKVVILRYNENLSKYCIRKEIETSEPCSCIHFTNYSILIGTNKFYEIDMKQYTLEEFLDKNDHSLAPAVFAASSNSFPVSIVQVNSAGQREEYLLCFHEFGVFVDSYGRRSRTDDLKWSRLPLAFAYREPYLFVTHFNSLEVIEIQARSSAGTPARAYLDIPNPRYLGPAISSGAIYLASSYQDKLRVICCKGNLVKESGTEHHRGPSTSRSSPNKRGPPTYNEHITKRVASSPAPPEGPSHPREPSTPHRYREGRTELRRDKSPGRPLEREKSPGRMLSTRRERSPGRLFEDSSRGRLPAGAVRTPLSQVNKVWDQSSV
Chain of IKKβ (O14920 whole entry): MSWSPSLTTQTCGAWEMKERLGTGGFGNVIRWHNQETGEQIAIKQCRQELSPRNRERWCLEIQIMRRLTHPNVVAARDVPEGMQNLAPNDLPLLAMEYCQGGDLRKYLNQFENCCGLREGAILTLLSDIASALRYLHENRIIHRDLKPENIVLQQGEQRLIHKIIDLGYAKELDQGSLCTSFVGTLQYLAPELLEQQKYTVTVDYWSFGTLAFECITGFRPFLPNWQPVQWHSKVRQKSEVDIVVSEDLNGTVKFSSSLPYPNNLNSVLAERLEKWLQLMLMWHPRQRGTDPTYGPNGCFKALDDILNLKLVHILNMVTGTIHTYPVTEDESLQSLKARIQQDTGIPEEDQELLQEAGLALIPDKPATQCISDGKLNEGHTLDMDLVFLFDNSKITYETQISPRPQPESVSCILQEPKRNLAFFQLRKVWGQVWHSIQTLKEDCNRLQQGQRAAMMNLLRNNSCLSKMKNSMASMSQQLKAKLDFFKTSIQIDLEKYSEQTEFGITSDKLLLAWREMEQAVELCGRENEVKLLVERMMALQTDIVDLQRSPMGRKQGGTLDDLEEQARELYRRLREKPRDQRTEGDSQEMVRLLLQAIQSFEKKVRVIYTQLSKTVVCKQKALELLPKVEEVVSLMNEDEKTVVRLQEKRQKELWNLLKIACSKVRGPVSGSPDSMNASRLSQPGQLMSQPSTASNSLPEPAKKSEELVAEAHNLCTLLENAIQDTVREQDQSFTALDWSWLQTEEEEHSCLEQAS
Chain of AAK1 (Q2M2I8 whole entry): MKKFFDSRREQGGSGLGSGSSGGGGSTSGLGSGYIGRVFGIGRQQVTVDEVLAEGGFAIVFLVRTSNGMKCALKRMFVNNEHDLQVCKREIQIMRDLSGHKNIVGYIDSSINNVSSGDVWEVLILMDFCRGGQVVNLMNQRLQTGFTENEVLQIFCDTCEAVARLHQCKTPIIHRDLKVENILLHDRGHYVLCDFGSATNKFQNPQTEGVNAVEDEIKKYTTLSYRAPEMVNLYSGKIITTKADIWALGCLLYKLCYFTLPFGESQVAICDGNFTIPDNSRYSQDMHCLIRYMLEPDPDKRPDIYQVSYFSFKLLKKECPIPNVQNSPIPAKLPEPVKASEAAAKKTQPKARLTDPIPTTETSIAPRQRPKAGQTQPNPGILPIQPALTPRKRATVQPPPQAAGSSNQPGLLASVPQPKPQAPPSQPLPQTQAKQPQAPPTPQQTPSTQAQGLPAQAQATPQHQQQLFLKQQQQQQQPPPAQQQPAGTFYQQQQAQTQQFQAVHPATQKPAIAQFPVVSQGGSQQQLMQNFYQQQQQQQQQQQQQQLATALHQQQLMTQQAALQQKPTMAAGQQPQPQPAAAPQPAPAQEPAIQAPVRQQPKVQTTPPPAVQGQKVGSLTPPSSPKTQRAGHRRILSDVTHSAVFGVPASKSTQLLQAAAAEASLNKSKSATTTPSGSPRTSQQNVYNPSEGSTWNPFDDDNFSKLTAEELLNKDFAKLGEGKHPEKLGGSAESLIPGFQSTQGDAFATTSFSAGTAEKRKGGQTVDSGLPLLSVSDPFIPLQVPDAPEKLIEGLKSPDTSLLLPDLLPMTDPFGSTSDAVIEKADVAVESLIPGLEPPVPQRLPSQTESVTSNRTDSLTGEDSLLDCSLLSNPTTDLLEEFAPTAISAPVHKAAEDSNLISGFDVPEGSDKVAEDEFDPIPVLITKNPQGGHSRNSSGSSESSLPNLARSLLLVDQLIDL
Chain of ACK1 (Q07912 whole entry): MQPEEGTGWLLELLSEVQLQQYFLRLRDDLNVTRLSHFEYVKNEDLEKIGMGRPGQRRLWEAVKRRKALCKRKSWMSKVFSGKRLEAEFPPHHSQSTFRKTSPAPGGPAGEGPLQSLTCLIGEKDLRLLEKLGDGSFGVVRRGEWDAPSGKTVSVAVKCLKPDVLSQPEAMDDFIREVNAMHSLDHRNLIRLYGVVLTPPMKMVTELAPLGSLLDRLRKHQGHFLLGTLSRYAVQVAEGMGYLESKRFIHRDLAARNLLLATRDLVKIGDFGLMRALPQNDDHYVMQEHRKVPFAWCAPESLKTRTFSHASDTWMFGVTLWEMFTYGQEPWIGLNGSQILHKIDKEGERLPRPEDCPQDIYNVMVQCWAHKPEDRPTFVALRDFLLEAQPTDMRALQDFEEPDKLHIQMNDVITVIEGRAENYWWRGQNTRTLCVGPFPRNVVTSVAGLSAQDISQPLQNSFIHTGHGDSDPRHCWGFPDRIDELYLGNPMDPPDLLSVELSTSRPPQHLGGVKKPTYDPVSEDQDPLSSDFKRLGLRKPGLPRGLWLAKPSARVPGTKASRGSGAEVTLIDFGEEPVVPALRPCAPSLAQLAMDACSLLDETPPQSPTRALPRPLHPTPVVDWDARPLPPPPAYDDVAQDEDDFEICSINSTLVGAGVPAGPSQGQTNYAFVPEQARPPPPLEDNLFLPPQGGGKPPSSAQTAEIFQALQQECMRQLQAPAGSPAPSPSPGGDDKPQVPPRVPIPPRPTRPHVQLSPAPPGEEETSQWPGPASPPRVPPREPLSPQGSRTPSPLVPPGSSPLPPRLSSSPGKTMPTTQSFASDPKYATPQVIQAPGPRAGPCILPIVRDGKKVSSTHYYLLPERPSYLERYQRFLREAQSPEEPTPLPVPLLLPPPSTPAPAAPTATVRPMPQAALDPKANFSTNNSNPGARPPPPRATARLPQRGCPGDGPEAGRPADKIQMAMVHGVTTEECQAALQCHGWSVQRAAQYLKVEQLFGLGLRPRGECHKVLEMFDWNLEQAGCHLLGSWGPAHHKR

IC50 (Mnk2): 1.99 µM | IC50 (PKAα): > 3 µM | IC50 (IKKβ): > 3 µM | IC50 (HIPK4): > 3 µM | IC50 (Citron kinase): 0.04 µM | IC50 (DRAK2): > 3 µM | IC50 (ACK1): > 3 µM | IC50 (ROCK-2): > 3 µM | IC50 (BIKE): > 3 µM | IC50 (AAK1): 1.91 µM | Kd [1]: 108 nM | IC50 ([1]; HEK293T cells transfected with NanoLuc-CITK, Tracer K10 1 μM, 2 hours): 0.58 µM
SMILES: Cc1cc2c(-c3ccc(NC(=O)[C@H](N)C(C)(C)O)cc3C)ccnc2[nH]1 [Compound F-140, (2R)-2-Amino-3-hydroxy-3-methyl-N-[3-methyl-4-(2-methyl-1H-pyrrolo[2,3-b]pyridin-4-yl)phenyl]butanamide]

Source: US20250243196A1, “CITRON KINASE INHIBITORS” (The Cleveland Clinic Foundation, priority 2021, published 2025)
